Measured values as given in patent US20080039434A1, “Treatment of Interstitial Cystitis with Vitamin D Compounds” (BioXell S. p.A., priority 2004, published 2008).

Assays:
[1] = tested on: MMCP4; assay: Taq-Man analysis of bladder mRNA, allergic IC in mice: MMCP4; type: in vivo, mouse; conditions: ovalbumin challenged; 75 ug/kg oral; individual animals
Description: (§1) Mice (BALB/c, females 8 weeks old, weight 18-20 g, Charles River, Calco ITA) were sensitized by injecting 10 ug/mouse of chicken ovalbumin from Sigma (OVA, grade V) in the presence of 4 mg of alum (SERVA, Germany) by intraperitoneal injection, once a week for 4 weeks. This induces a sustained level of IgE detectable in serum.
(§2) One or two weeks after the last immunization boost, sensitized mice were anesthetized (1.5% Isoflurane) and then trans-urethrally catheterized (24 gauge, ¾ in.; Angiocath, Becton-Dickson). Slight digital pressure was applied the lower abdomen to drain the urine.
(§3) The urinary bladders were instilled with either 150 ul of either saline or OVA alone, (1 mg/150 ul) infused at a slow rate to avoid trauma and vesico-ureteral reflux and repeated twice within a 30-min interval with the syringe kept in place on the catheter for at least 30 min. Intravesical challenge was repeated 7-10 days after the first one with the same procedure.
(§4) An ethanol stock solution of Compound B (1 mg/ml) was dissolved in Miglyol vehicle at the appropriate concentration. Control animals received the vehicle containing the same amount of ethanol. Drug (or vehicle) treatment was carried out by daily gavage after weighing the animal. Drug solution was prepared calculating a final volume of 100 ul/10 grams body weight, and treatment was started on the day of the first intravesical ovalbumin challenge, maintained daily, but discontinued over the weekends, for 12 days total treatment. FIG. 7 illustrates the timeline of the experiment.
(§5) Total RNA was extracted from one half of bladder by using RNeasy Mini kit (Qiagen), treated with DNase 1 (Qiagen) and reverse transcription performed with Reverse Transcription Reagent (Applied Biosystems) with Random Hexamers (according to the manufacturer's instructions). cDNA was synthesized from 1 ug of RNA. Real-Time PCR was performed in 96-well optical reaction plates (Applied Biosystems). For each sample we amplified both the target gene and the housekeeping gene (HPRT) in different wells (singleplex) and in duplicate. The amplification Master Mix was prepared according to the following protocol (volumes refer to a single well with a final volume of 40 ul/well)): 2× TaqMan® R Universal PCR Master Mix (Applied Biosystems, 4304437): 20 ul; 20× Assay target gene: 2 ul; H2O: 8 ul; cDNA: 10 ul. Reaction was run on an SDS 7000 (Applied Biosystems) instruments, with the following amplification program: 2′ at 50° C.; 10′ at 95° C.; 15″ at 95° C. and 1′ at 60° C. for 40 cycles; Cycle threshold (Ct) values were exported into Excel Worksheets for analysis and relative quantitations were performed using the ΔCt method. All primers used carried the FAM reporter.
(§6) Experiments in Example 7 were performed according to the general procedures described previously in Example 6. Mice were challenged with saline (untreated) or ovalbumin (treatment with vehicle or one of Compounds C-I at a dosage indicated in Table 6 in ug/kg).

[2] = tested on: rats with CYP-induced cystitis; assay: Cystometry in rats with CYP induced chronic IC, Compound B; type: in vivo, rat; conditions: for # of NVBC / FP / MP / TP / amplitude of NVBC / Bl. Cap.: group value; for Bl. Cap.: unit from FIG. 5 legend
Text: Wistar rats ([…] weighing 125-175 g, age 8 weeks) were used. Under general inhalation anesthesia with 2% isoflurane, polyethylene tubing (PE-50, Clay Adams, Parsippany, N.J.) with the end flared by heat was inserted into the dome of the bladder and secured in place with a 6-0 nylon purse string suture. The distal end of the tubing was sealed, tunneled subcutaneously and externalized through a small incision at the back of the neck. The tubing was then coiled and buried subcutaneously. Following recovery (5 days) subject animals underwent three intraperitoneal injections of CYP (Sigma Chemical, St. Louis, Mo.; 75 mg/kg each, intraperitoneal) over the period of nine days. […] Two weeks following the initiation of the treatment animals underwent a conscious cystometrogram to assess the function of the urinary bladder. […] An ethanol stock solution of Compound B (1 mg/ml) was dissolved in Miglyol vehicle at the appropriate concentration. Control animals received the vehicle containing the same amount of ethanol. Drug (or vehicle) treatment was carried out by daily gavage after weighing the animal. Drug solution was prepared calculating a final volume of 100 ul/10 grams body weight. Following two weeks of treatment, animals were placed unrestrained in a cage and the distal end of the catheter was extracted from the subcutaneous pouch and connected via T-tube to a pressure transducer (Grass® Model PT300, West Warwick, R.I.) and microinjection pump (Harvard Apparatus 22, South Natick, Mass.). Saline solution (0.9%, room temperature) was infused into the bladder at a rate of 10 ml/h. Intravesical pressure was recorded continuously using a Neurodata Acquisition System (Grass®, Astro-Med, West Warwick, R.I.). At a minimum, three reproducible micturition cycles were recorded. […] The post-void residual (PVR) was measured by aspirating the residual urine remaining in the bladder after the last micturition or draining the bladder by gravity. Bladder capacity (BC) was calculated as the sum of voided volume and PVR. The bladder was harvested and its weight was recorded following euthanasia.

[3] = tested on: ovalbumin specific IgE; assay: Ova-specific IgE ELISA, allergic IC in mice; type: in vivo, mouse; conditions: 75 ug/kg oral vs vehicle; ovalbumin-sensitized BALB/c mice
Description: as §1, §2, §3
Treatment Group: 10 mice were treated with oral vitamin D3 analogue (1-alpha-fluoro-25-hydroxy-16,23Ediene-26,27-bishomo-20-epi-cholecalciferol) Compound “B” for 14 days (daily dose of either 30 or 75 ug/kg). […]
Ova-specific IgE were measured according to the following procedure. […] Finally, 450 nm absorbance was recorded after the reaction was stopped.

[4] = Body weight in allergic IC mice; type: in vivo, mouse; conditions: 75 ug/kg oral vs control animals; daily timepoints
Description: as §4

[5] = tested on: IL-13; assay: Taq-Man analysis of bladder mRNA, allergic IC in mice: IL-13; type: in vivo, mouse; conditions: ovalbumin challenged
Description: as §1, §2, §3, §4, §5, §6

[6] = 30 ug/kg oral daily for 14 days
[7] = 75 ug/kg oral daily for 14 days
[8] = vs vehicle, not statistically significant

C=C1/C(=C\C=C2/CCC[C@]3(C)C([C@@H](C)C/C=C/C(O)(CC)CC)=CC[C@@H]23)C[C@@H](O)C[C@@H]1F [Compound B, 1-alpha-fluoro-25-hydroxy-16,23E-diene-26,27-bishomo-20-epi-cholecalciferol]
expression of inflammatory marker MMCP4 [1]: down-modulates
# of NVBC [2, 6]: 11.7
FP [2, 6]: 23.3 cm H2O
MP [2, 6]: 79.3 cm H2O
TP [2, 6]: 29.3 cm H2O
amplitude of NVBC [2, 6]: 16.6
Bl. Cap. [2, 6]: 2.0 mL
# of NVBC [2, 7]: 8.3
FP [2, 7]: 26.1 cm H2O
MP [2, 7]: 90.5 cm H2O
TP [2, 7]: 36.3 cm H2O
amplitude of NVBC [2, 7]: 13.6
Bl. Cap. [2, 7]: 2.1 mL
frequency of non-voiding bladder contractions ([2]; both dosage levels (30 ug/kg, p<0.01; 75 ug/kg, p<0.005) vs vehicle): significantly reduced
bladder capacity ([2]; both dosage levels (30 ug/kg, p<0.01; 75 ug/kg, p<0.01) vs vehicle): increased
amplitude of non-voiding bladder contractions ([2]; higher dose level (75 ug/kg), not statistically significant): reduced
filling pressure [2, 8]: Marginal increase
threshold pressure [2, 8]: Marginal increase
ovalbumin specific IgE in serum [3]: no significant changes
body weight [4]: no significant difference
expression of inflammatory marker IL-13 ([5]; 75 ug/kg oral, individual animals): down-modulates
expression of inflammatory marker IL-13 ([5]; 30 and 75 ug/kg oral, dose dependent, pooled samples): significantly reduces
